Data reported in PubChem BioAssay AID652047 (Broad Institute, 2013).
Where “and” joins values, the source holds several entries; their conditions need not be identical. Identical values can stand only once. Calls of active or inactive are those of the source.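 How the source made its calls: active means fitted curve reaches activity change of -35% signal drop at a concentration below twice the top valid tested dose; inactive means the rest, including activity in the opposite direction.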

Legend:
[1] = growth inhibition of P. falciparum 3D7, dose response, 3D7 strain, red blood cells, SYBR Green, cherry-picked (AID 652047);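 on activity change, negative = inhibition: 0% = untreated neutral control wells and -100% = mefloquine positive control wells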; settings: P. falciparum 3D7 in RBCs, SYBR Green DNA fluorescence; at 50 µM (top of the series)
[2] = tested on: P. falciparum 3D7 in RBCs, SYBR Green DNA fluorescence; assay: as above

| SMILES | activity change, negative = inhibition [1] | AC35 [2] |
| --- | --- | --- |
| CC1(C)CC(=O)C(N=Nc2ccc3ncsc3c2)=C(O)C1 | -15.1% (inactive) |  |
| CC(C)NC(=O)NC(=O)COC(=O)c1ccc([N+](=O)[O-])cc1Cl | 16.4% (inactive) |  |
| Cc1nc2ccc(C(=O)NCc3ccc4c(c3)OCO4)cc2s1 | 1.05% (inactive) |  |
| Nc1nc2sc3c(c2c(=O)s1)CCCC3 | -14.6% (inactive) |  |
| O=C(N/N=C/c1cc(Cl)cc([N+](=O)[O-])c1O)c1ccccc1NS(=O)(=O)c1cccs1 | 3.85% (inactive) |  |
| CCCn1c(=O)c(C(=O)NCc2ccc(OC)c(OC)c2)c(O)c2ccccc21 | -23.6% (inactive) |  |
| O=C(c1ccccc1)N1C(=O)C(c2ccccc2)Oc2ccccc21 (centres undefined) | -36.8% (inactive) |  |
| Cc1cc(Nc2ccccc2)nn1C(=O)c1ccccc1 | -5.49% (inactive) |  |
| CC1=NN(C(N)=S)C(=O)C1N=Nc1cccc(Cl)c1C (centres undefined) | -20.7% (inactive) |  |
| CCc1ccc(S(=O)(=O)N(C(=O)c2ccncc2)c2ccc(OC(=O)c3ccncc3)cc2)cc1 | -20% (inactive) |  |
| O=C1Nc2c(Br)cccc2C1=O | -4.37% (inactive) |  |
| Clc1ccc(-c2n[nH]c3c2CCC3)cc1Cl | 19.2% (inactive) |  |
| COc1cccc(C(C)=C2SC(=S)NC2=O)c1 | -18.5% (inactive) |  |
| CC12CCC(O)CC1=CCC1C2CCC2(C)C3=NN=CC3CC12 (centres undefined) | -27.5% (inactive) |  |
| Cc1cccc(N2CCN(C(=O)C3COc4ccccc4O3)CC2)c1C (centres undefined) |  | 34.3 µM |
| Cc1ccc(O)c(C2=NNC(c3ccc(Cl)cc3)C2)c1 (centres undefined) |  | 4.31 µM |
| COc1ccc(-c2oc3ccccc3c2C#Cc2cncn2C)cc1 |  | 0.603 µM |
| Oc1ccc(N=Nc2ccc3c(c2)OCCO3)c2cccnc12 |  | 0.706 µM |
| O=C(/C(=N/N=C/c1ccc(O)c(O)c1O)c1ccccc1)c1ccccc1 |  | 4.96 µM |
| CC1(C)C=Cc2c(ccc3c2OC[C@@H](c2ccc(O)cc2O)C3)O1 |  | 17.8 µM |
| O=C(COc1ccccc1F)Nc1nc(-c2ccccn2)cs1 |  | 10.5 µM |
| C=C(C)COc1ccc(-c2[nH]ncc2-c2ccc(Br)cc2)c(O)c1 |  | 3.55 µM |
| OCCN(CCO)c1cc2c3ccccc3ccc2c2ccccc12 |  | 1.69 µM |

| SMILES | activity change, negative = inhibition [1] | AC35 [2] |
| --- | --- | --- |
| CCOC(=O)c1cc2c(=Cc3ccc(N(C)C)cc3)c3ccccc3n2[n+]1C |  | 1.94 µM |
| Cc1cc(C(=O)COC(=O)Cc2n[nH]c(=O)c3ccccc23)c(C)n1-c1cccc(C(F)(F)F)c1 |  | 6.57 µM |
| CN(C)c1ccc(C=c2c3ccccc3n3c2c2c([n+]3C)CCCC2)cc1 |  | 0.15 µM |
| CC(C)(C)n1nc(Cc2cccc3ccccc23)c2c(N)ncnc21 |  | 25.7 µM |
| O=C(c1ccc(-c2ccccc2)cc1)C1CCCN(C(=O)c2cncs2)C1 (centres undefined) |  | 9.45 µM |
| Cc1ccccc1Oc1nc(-c2ccccn2)nc2ccccc12 |  | 2.17 µM |
| Cc1cc(/C=C2\SC(=S)N(C)C2=O)c(C)n1-c1ccc(O)cc1 |  | 10.8 µM |
| O=S(=O)(c1ccc(Cl)cc1)N1CCC2(CC1)OCCN2S(=O)(=O)c1cccs1 |  | 24.8 µM |
| COc1ccc(N=N/C(=C\O)C(=O)c2cccs2)cc1 |  | 7.16 µM |
| CCOC(=O)c1cnc(-n2nc(C)cc2C)nc1NC1CCCC1 |  | 2.6 µM |
| Cc1ccc(C)c(/C=C/C(=O)c2ccccc(=O)c2O)c1 |  | 7.91 µM |
| O=Cc1cc(N=Nc2ccccc2Cl)ccc1O |  | 2.77 µM |
| O=S(=O)(Nc1ccccc1)c1ccc(Oc2ncc(C(F)(F)F)cc2Cl)cc1 |  | 28.7 µM |
| NC(=Nc1nc(-c2ccccn2)cc2ccccc12)c1ccccn1 |  | 0.0527 µM |
| O=C1c2ccccc2-n2c1nc1ccccc1c2=O |  | 0.181 µM |
| Clc1ccc(C2=NCCN2)cc1 |  | 5.64 µM |
| CC/C(=N/NC(=O)c1ccccc1O)c1c(C)[nH]n(-c2ccccc2)c1=O |  | 34.9 µM |
| Clc1nc(-c2ccccn2)nc2scc(-c3ccccc3)c12 |  | 2.34 µM |
| CCN(CC)c1ccc(/C=N/NC(=O)c2c(Cl)cnn2C)c(O)c1 |  | 3.27 µM |
| O=C(CSc1ccc(-c2ccccn2)nn1)NCc1ccc(F)cc1 |  | 28.7 µM |
| CCCCNc1c(-c2cccc(Sc3ccc(OC)cc3)c2)nc2ccccn12 |  | 15.3 µM |
| CC(C)(C)C(=O)C(Oc1ccc(Cl)cc1)n1cncn1 (centres undefined) |  | 36.6 µM |
| O=C(O)c1ccccc1NC(c1ccccc1)c1ccc2cccnc2c1O (centres undefined) |  | 10.8 µM |

| SMILES | activity change, negative = inhibition [1] | AC35 [2] |
| --- | --- | --- |
| O=P(Nc1cccnc1)(Oc1ccccc1Cl)Oc1ccccc1Cl |  | 40.7 µM |
| CC(C)(C)C(O)C(Cc1ccccc1Cl)n1cncn1 (centres undefined) |  | 25.7 µM |
| COc1ccc(C(=O)On2c(-c3ccc(Br)cc3)nc3ccccc3c2=O)cc1 |  | 5.71 µM |
| O=C(CSc1ccc(-c2ccccn2)nn1)c1ccccc1 |  | 20 µM |
| O=C(CCCSc1ccccc1)Nc1nc(-c2ccccn2)cs1 |  | 6.69 µM |
| Cc1csc(NC(=O)C(C)Oc2ccc(Cl)cc2C)n1 (centres undefined) |  | 38.3 µM |
| CCCCCCSc1ccc(-c2nc3ccccn3c2NCCCC)cc1 |  | 12.2 µM |
| CCCCCCCCCCOC(=O)Cn1c(COc2ccccc2OC)[n+](C)c2ccccc21 |  | 0.401 µM |
| Clc1ccc(COC(Cn2ccnc2)c2ccc(Cl)cc2Cl)c(Cl)c1 (centres undefined) |  | 1.2 µM and 1.52 µM |
| O=C(Nc1nnc(-c2cccs2)o1)c1cccc(Oc2ccccc2)c1 |  | 23 µM |
| C(=C1c2ccccc2-c2ccccc21)c1ccncc1 |  | 12.1 µM |
| CC(=O)C1=C(c2cccc([N+](=O)[O-])c2)N(C(C)=O)n2c(C)nnc2S1 |  | 0.836 µM |
| O=C(c1ccccc1)c1coc2c1C(=O)c1ccccc1C2=O |  | 3.82 µM |
| CC(/C=N/n1c(COc2ccccc2)n[nH]c1=S)=C\c1ccccc1 |  | 37.3 µM |
| CCCCOC(=O)/C=C/c1ccc(OC(=O)OC)c(OC(=O)OC)c1 |  | 14.7 µM |
| COc1cc([N+](=O)[O-])cc(/C=N/NC(=O)c2cncc(Br)c2)c1O |  | 11.7 µM |
| CC[n+]1c(/C=C/C=C/c2ccc(N(C)C)cc2)sc2ccccc21 |  | 6.28 µM |
| O=C(CC1CC2CCC1C2)Nc1nc(-c2ccccn2)cs1 (centres undefined) |  | 2.94 µM |
| Cn1ccc(=Nc2ccc(NC(=O)c3ccc(N=c4ccn(C)c5ccc([N+](=O)[O-])cc45)cc3)cc2)cc1 |  | 0.0417 µM |
| CCCC(C)Sc1nc2c([nH]1)c(=S)n(C)c(=O)n2C (centres undefined) |  | 4.74 µM |
| Cc1ccc2oc(-c3ccccc3)c(C(=O)O)c(=O)c2c1 |  | 16.2 µM |
| O=C1c2cc(F)ccc2-n2c1nc1ccccc1c2=O |  | < 0.0235 µM |
| CC1=CC(C)(C)N(S(=O)(=O)c2ccc(C)cc2)c2ccc(C)cc21 |  | 22.3 µM |

| SMILES | activity change, negative = inhibition [1] | AC35 [2] |
| --- | --- | --- |
| O=[N+]([O-])c1ccc(Sc2cccc[n+]2[O-])c2nonc12 |  | 0.657 µM |
| Cc1cc(Cl)ccc1C(=O)C1CCCN(C(=O)c2cncs2)C1 (centres undefined) |  | 26 µM |
| CCc1ccc(CN(C)C(=O)c2cc(COc3cccc(C(F)(F)F)c3)on2)nc1 |  | 24.6 µM |
| COc1ccc(Sc2nc(-c3ccccn3)ncc2OC)cc1 |  | 1.26 µM |
| Cc1cccc(Nc2nc(-c3ccc(O)cc3O)cs2)n1 |  | 20.3 µM |
| O=c1c2ccccc2nc(-c2cccc(Cl)c2)n1O |  | 25.4 µM |
| Cc1cccc(NC(=S)NC(C)CCc2ccccc2)c1 (centres undefined) |  | 5.69 µM |
| Cc1ccc(-c2c3c(nc4sc(C(N)=O)c(N)c24)CCCC3)o1 |  | 42.6 µM |
| COc1cnc(-c2ccccn2)nc1Sc1ccc(C)cc1 |  | 1.73 µM |
| Cc1nn(CCC#N)c(N)c1C1(O)C(=O)Nc2c(Cl)cc(Cl)cc21 (centres undefined) |  | 16 µM |
| O=c1c2ccccc2c(-c2ccc(O)cc2)nn1-c1cccc(C(F)(F)F)c1 |  | 5.55 µM |
| C=C(C)COc1ccc(-c2[nH]ncc2-c2ccccc2)c(O)c1 |  | 2.91 µM |
| COc1ccc2[nH]c(=O)c(CN(Cc3cccnc3)C(=O)Nc3ccccc3)cc2c1 |  | 17.5 µM |
| Cc1ccc(O)c(-c2cc(-c3ccccc3C)[nH]n2)c1 |  | 10.8 µM |
| C=CCN(CC=C)C(=S)NC(=O)c1ccc(C)c(Br)c1 |  | 6.98 µM |
| COc1ccc(O)c(C(=O)CC(=O)c2ccccc2C)c1 |  | 8.89 µM |
| O=C(Nc1cc(Oc2ccc(Cl)cc2)cc([N+](=O)[O-])c1)c1ccco1 |  | 6.1 µM |
| O=C(Nc1nc(-c2ccccn2)cs1)c1ccc(Br)s1 |  | 0.663 µM |
| COc1ccc(/C=N/Nc2cc(C)nc(-n3nc(C)cc3C)n2)cc1 |  | 1.06 µM |
| Cc1ccc(Sc2ccc(NC(=O)CCl)cc2)cc1C |  | 0.422 µM |
| Nc1cc2c3ccccc3ccc2c2ccccc12 |  | 1.01 µM |
| C=CCOC(Cn1ccnc1)c1ccc(Cl)cc1Cl (centres undefined) |  | 6.08 µM |
| O=C1c2cccc(Cl)c2C(=O)c2c1cccc2N1CCCC1 |  | 22.7 µM |

| SMILES | activity change, negative = inhibition [1] | AC35 [2] |
| --- | --- | --- |
| Oc1cccc2ccc(Nc3ccccn3)nc12 |  | 0.182 µM |
| COc1cccc(/C=N/Nc2ncnc3scc(-c4ccccc4)c23)c1O |  | 1.91 µM |
| CC1CCc2c(C(=O)Nc3ccccn3)csc2C1 (centres undefined) |  | 28.7 µM |
| Clc1ccc(C(Cn2ccnc2)OCc2c(Cl)cccc2Cl)c(Cl)c1 (centres undefined) |  | 2.76 µM |
| c1ccc(CSc2ccc(-c3ccccn3)nn2)nc1 |  | 19 µM |
| Cc1ccsc1/C=C/c1ccc2cccc(O)c2n1 |  | 14.2 µM |
| Cc1ccccc1C(=O)NNC(=S)NC(=O)c1ccc(Cl)cc1Cl |  | 41.1 µM |
| Oc1c(C(Nc2cccc(C(F)(F)F)c2)c2ccncc2)ccc2cccnc12 (centres undefined) |  | 0.879 µM |
| CC(=O)C1=C(c2ccc(Br)cc2)C(=O)c2ccccc2C1=O |  | 0.82 µM |
| CCC(C)n1ncn(-c2ccc(N3CCN(c4ccc(OCC5COC(Cn6cncn6)(c6ccc(Cl)cc6Cl)O5)cc4)CC3)cc2)c1=O (centres undefined) |  | 4.24 µM |
| C=CCn1c(-c2cc(-c3ccc(C)cc3)nc3ccccc23)n[nH]c1=S |  | 15.5 µM |
| C=CCNc1nc(-c2ccccn2)nnc1-c1ccccc1 |  | 1.21 µM |
| CN(C)c1nc(-c2ccccn2)nnc1-c1ccccc1 |  | 1.13 µM |
| O=C(CN1CC[n+]2c(-c3cccs3)csc21)c1ccc(-c2ccccc2)cc1 |  | 2.39 µM |
| O=C(NCc1ccncc1)c1ccccc1Nc1ccc(SC(F)F)cc1 |  | 21.1 µM |
| C=C1C(=O)C23CCC4C(C)(C(=O)OC)CCCC4(C)C2CCC1(O)C3 (centres undefined) |  | 1.99 µM |
| COc1ccccc1-c1sc2cc3c(cc2c1C#Cc1cncn1C)OCO3 |  | 2.48 µM |
| CCN(CC)C(=O)CSc1ncnc2sc(-c3ccccc3)cc12 |  | 35.6 µM |
| CCC(C)Sc1cccc(-c2nc3ccccn3c2NCc2ccccc2)c1 (centres undefined) |  | 16.8 µM |
| C=CCNC(=S)N1CCC(Cc2ccccc2)CC1 |  | 43.5 µM |
| S=C(Nc1ccc(Oc2ccccc2)cc1)NC1CCCCCC1 |  | 12.7 µM |
| CN(c1ccccc1)c1nc(N2CCCC2)nc(-n2ccnc2)n1 |  | 9.8 µM |
